Measurements reported in patent publication US6767741B1, “Metal binding compounds and their use in cell culture medium compositions” (Invitrogen Corporation, priority 1999, dated 2004).

Columns and labels:
Type in all cases: cell-based
Conditions in all cases: third passage
[1] = tested on: CHO cells; assay: Growth of CHO cells in transferrin-free CD CHO medium with metal binding compounds
Procedure: The ability of metal binding compounds to support cellular growth in the absence of transferrin was evaluated using CHO cells maintained in CD CHO medium (Life Technologies, Rockville, Md., the formulation of which is described in WO 98/08934). Stock cultures containing 5 μg/mL human holo-transferrin were prepared in CD CHO medium. For metal binding compound evaluation, CHO cells were established in 125 mL shaker flasks at an initial viable seeding density of 1×10^5 cells/mL in a final volume of 20 mL. All cultures were maintained at 37° C. in humidified air containing 8% CO2. To eliminate transferrin carry-over effects, cells were subcultured at 4 day intervals for a total of three passages. Positive control cultures contained 5 μg/mL human holo-transferrin while negative control cultures were established in the absence of either transferrin or metal binding compound. Metal binding compound stocks were prepared at 0.1M-0.2M in ddH2O and solubilized when necessary using 5N NaOH or HCl. Iron complexes were established using 0.2M metal binding compound and iron stocks mixed 1:1 (v/v) and incubated for 5-10 minutes at 22° C. All solutions containing metal binding compounds were filter sterilized using a 0.22 μm Millex-GV filter prior to addition to transferrin and serum-free media.
(§1) In most cases, metal binding compounds were evaluated either alone or in combination with ferric chloride or ferrous sulfate at 25 μM, 50 μM and 100 μM. Values in the table represent the mean percentage of control growth for duplicate cultures determined at the third passage.
The ability of various metal binding compounds to substitute for transferrin in the culture of CHO cells was determined. When added to the medium formulation un-complexed, the metal binding compound is listed alone, when added as a complex with a transition metal, the source of the transition metal is listed with the metal binding compound.

[2] = tested on: Sp2/0 cells; assay: Growth of Sp2/0 cells in transferrin-free CD Hybridoma medium with metal binding compounds
Procedure: The ability of iron metal binding compounds to support cellular growth in the absence of transferrin was evaluated using Sp2/0 cells maintained in CD Hybridoma medium (Life Technologies, Rockville, Md.). Stock cultures containing 5 μg/mL human holo-transferrin were prepared in CD Hybridoma medium. For metal binding compound evaluation, Sp2/0 cells were established at an initial viable cell density of 0.5×10^5 cells/mL in stationary culture using 75 cm^2 tissue culture flasks in a final volume of 20 mL. All cultures were maintained at 37° C. in humidified air containing 8% CO2. To eliminate transferrin carry-over effects, cells were subcultured at the same seeding density at 4 day intervals for a total of three passages. Positive control cultures contained 5 μg/mL human holotransferrin while negative control cultures were established in the absence of either transferrin or metal binding compound. Metal binding compound stocks were prepared at 0.1M-0.2M in ddH2O and solubilized when necessary using 5N NaOH or HCl. Iron complexes were established using 0.2M metal binding compound and iron stocks mixed 1:1 (v/v) and incubated for 5-10 minutes at 22° C. All solutions containing metal binding compounds were filter sterilized using a 0.22 μm Millex-GV filter prior to addition to transferrin and serum-free media.
as §1
(§2) When added to the medium formulation un-complexed, the metal binding compound is listed alone, when added as a complex with a transition metal, the source of the transition metal is listed with the metal binding compound.

[3] = tested on: 293 cells; assay: Growth of 293 cells in transferrin-free 293 SFM with metal binding compounds
Procedure: Semi-confluent adherent cultures of 293 Cells (ATCC, CRL 1573) are readily adapted to suspension culture. The cells are first detached with a solution of Trypsin-EDTA (0.05% Trypsin, 0.53 mM Na4EDTA), and then resuspended in conventional medium supplemented with 10% FBS to inhibit the trypsin. The resuspended cells are centrifuged at 200×g for five minutes. The cell pellet is resuspended in 293 SFM (available from Life Technologies, Rockville, Md.) the formulation of which is described in WO 98/08934 which is specifically incorporated herein by reference. Alternatively, the cells may be detached with Versene (Na4EDTA, 0.53 mM) and resuspended in 293 SFM.
The initial seeding density of the 293 cells after conversion to suspension culture is 1×10^6 cells/mL. The cells are shaken on a rotary shaker at 150 rpm in a 37° C. incubator equilibrated with 8% CO2-92% air. When the cells reach a density of 1.5×10^6 cells/mL they are diluted with 293 SFM to a density of 3.0×10^5 cells/mL. Because 293 cells have a tendency to aggregate, the cells may be vortexed vigorously for approximately 45 seconds to obtain a predominantly single cell suspension at the time of passaging and counting. After several passages in suspension culture, the maximum achievable density may be determined.
The ability of metal binding compounds to support cellular growth was evaluated using 293 cells maintained in 293 SFM (Life Technologies, Rockville, Md.) without transferrin or metal binding compound. Stock cultures containing 5 μg/mL human holo-transferrin were prepared in 293 SFM. For metal binding compound evaluation, 293 cells were established in 125 mL shaker flasks at an initial viable seeding density of 2×10^5 cells/mL in a final volume of 20 mL. All cultures were maintained at 37° C. in humidified air containing 8% CO2. To eliminate transferrin carry-over effects, cells were subcultured at 4 day intervals for a total of three passages. At each subculturing, cells were seeded at a density of 2×10^5 cells/mL. Positive control cultures contained 5 μg/mL human holo-transferrin while negative control cultures were established in the absence of either transferrin or metal binding compound. Metal binding compound stocks were prepared at 0.1M-0.2M in ddH2O and solubilized when necessary using 5N NaOH or HCl. Iron complexes were established using 0.2M metal binding compound and iron stocks mixed 1:1 (v/v) and incubated for 5-10 minutes at 22° C. All solutions containing metal binding compounds were filter sterilized using a 0.22 μm Millex-GV filter prior to addition to transferrin and serum-free media.
as §1, with “μM. When used in combination, the metal binding compounds were used in equimolar concentration with iron ions.” for “μM.”
as §2

[4] = 25 μM, control = 5 μg/mL human holo-transferrin, duplicate cultures
[5] = 50 μM, control = 5 μg/mL human holo-transferrin, duplicate cultures
[6] = 100 μM, control = 5 μg/mL human holo-transferrin, duplicate cultures
[7] = 5 μM, control = holo-transferrin
[8] = 10 μM, control = holo-transferrin
[9] = 20 μM, control = holo-transferrin

Row | Structure (SMILES) | mean percentage of control growth [1, 4] [%] | mean percentage of control growth [1, 5] [%] | mean percentage of control growth [1, 6] [%] | mean percentage of control growth [2, 4] | mean percentage of control growth [2, 5] [%] | mean percentage of control growth [2, 6] [%] | mean percentage of control growth [3, 4] [%] | mean percentage of control growth [3, 5] [%] | mean percentage of control growth [3, 6] [%] | mean percentage of control growth [1, 7] [%] | mean percentage of control growth [1, 8] [%] | mean percentage of control growth [1, 9] [%] | mean percentage of control growth [3, 7] [%] | mean percentage of control growth [3, 8] [%] | mean percentage of control growth [3, 9] [%] | mean percentage of control growth [2, 7] [%] | mean percentage of control growth [2, 8] [%] | mean percentage of control growth [2, 9] [%]
1 | NC(CS)C(=O)O.O=S(=O)([O-])[O-].[Fe+2] (stereo not drawn) [Cysteine · Ferrous Sulfate] | 83 | 64 | 45 | 85? % | 79 | 67 | – | – | – | – | – | – | – | – | – | – | – | –
2 | O=c1cc(CO)occ1O.[Cl][Fe]([Cl])[Cl] [Kojic Acid · Ferric Chloride] | 89 | 88 | 85 | 0% | 0 | 0 | – | – | – | – | – | – | – | – | – | – | – | –
3 | O=S(=O)([O-])[O-].[Fe+2] [Ferrous Sulfate, reference compound] | 88 | 79 | 38 | 91% | 103 | 94 | 71 | 60 | 41 | – | – | – | – | – | – | – | – | –
4 | O=C(O)CN(CCN(CC(=O)O)CC(=O)O)CCN(CC(=O)O)CC(=O)O.O=S(=O)([O-])[O-].[Fe+2] [Diethylenetriamine Penta-Acetic Acid · Ferrous Sulfate] | 135 | 137 | 147 | 54% | 90 | 91 | 77 | 107 | 85 | – | – | – | – | – | – | – | – | –
5 | CC(=O)N(O)CCCCCNC(=O)CCC(=O)N(O)CCCCCNC(=O)CCC(=O)N(O)CCCCCN.CS(=O)(=O)O.[Cl][Fe]([Cl])[Cl] [Deferoxamine Mesylate · Ferric Chloride] | – | – | – | – | – | – | – | – | – | 50 | 74 | 52 | 101 | 120 | 127 | 0 | 0 | 0
6 | O=C(O)CN(CC(=O)O)CC(=O)O.[Cl][Fe]([Cl])[Cl] [Nitriloacetic Acid · Ferric Chloride] | 127 | 107 | 107 | 88% | 87 | 70 | 100 | 118 | 74 | – | – | – | – | – | – | – | – | –
7 | NC(CO)C(=O)NO.[Cl][Fe]([Cl])[Cl] (stereo not drawn) [Serine Hydroxamate · Ferric Chloride] | 106 | 121 | 124 | 46% | 66 | 62 | 68 | 65 | 51 | – | – | – | – | – | – | – | – | –
8 | NC(CC(=O)O)C(=O)O.[Cl][Fe]([Cl])[Cl] (stereo not drawn) [Aspartic Acid · Ferric Chloride] | 77 | 89 | 112 | – | – | – | 81 | 86 | 100 | – | – | – | – | – | – | – | – | –
9 | CCc1occc(=O)c1O [2-Ethyl-3-Hydroxy-4-Pyrone] | 9 | 60 | 113 | 0% | 75 | 116 | 59 | 120 | 126 | – | – | – | – | – | – | – | – | –
10 | OC[C@@H](O)[C@@H](O)[C@H](O)[C@@H](O)CO.[Cl][Fe]([Cl])[Cl] [Sorbitol · Ferric Chloride] | 100 | 107 | 112 | 94% | 55 | 60 | – | – | – | – | – | – | – | – | – | – | – | –
11 | O=C(O)c1ccc[n+]([O-])c1.[Cl][Fe]([Cl])[Cl] [Nicotinic Acid-N-Oxide · Ferric Chloride] | 60 | 84 | 105 | – | – | – | 104 | 80 | 79 | – | – | – | – | – | – | – | – | –
12 | [Cl][Fe]([Cl])[Cl].c1ccc(Nc2ccccn2)nc1 [2,2-Dipyridylamine · Ferric Chloride] | 40 | 48 | 65 | – | – | – | 118 | 96 | 101 | – | – | – | – | – | – | – | – | –
13 | O=c1cc(CO)occ1O [Kojic Acid] | 0 | 0 | 0 | 0% | 0 | 0 | – | – | – | – | – | – | – | – | – | – | – | –
14 | O=C(O)c1ccccn1.[Cl][Fe]([Cl])[Cl] [2-Pyridinecarboxylic Acid · Ferric Chloride] | 88 | 89 | 100 | 0% | 30 | 48 | – | – | – | – | – | – | – | – | – | – | – | –
